Data taken from patent US9655824B2, “Use of diphenylmethane derivatives as tyrosinase inhibitors” (Symrise AG, priority 2003, dated 2017).

Legend:
Format in all cases: cell-based
[1] = Cytotoxicity determination (MTT), 3T3 cells; details: mouse, 3T3 fibrosarcoma cells; 3T3 cells, 48 h incubation, MTT
Procedure: (§1) 3T3 fibrosarcoma cells or B16V mouse melanoma cells are distributed in a 96-well microtitre plate in a concentration of 1×10^4 cells/well (3T3) or 2×10^4 cells/well (B16V). After culturing for 24 h at 37° C. and 5% CO2 in DMEM medium (3T3 cells) or RPMI medium (B16V cells), enriched with 10% foetal calf serum, the medium is removed by suction. Various concentrations of the test substances, dissolved in fresh medium enriched with 5% foetal calf serum, are added and the plates are incubated for a further 48 h. A parallel incubation is carried out using SDS as standard in concentrations of 0.01 mM, 0.1 mM, 1 mM and 10 mM. After the incubation, the medium is removed by suction and the cells are incubated for with (sic) 2 h with MTT (3-[4,5-dimethylthiazol-2-yl]2,5-diphenyl tetrazolium bromide). After extraction of the dye with SDS acidified with acetic acid in DMSO (10 min), the absorption (A) at 570 nm is measured.
(§2) Average value and standard deviation of the controls, the blanks and the samples are calculated. The average value of the blanks is substracted from the average values of the controls and samples. The viability of the cells is indicated as a percentage with respect to the controls (100%): Viability (%)=(Atest compound/Acontrol)×100]

[2] = tested on: B16V mouse melanoma cells; assay: Lightening effect: inhibition of pigmentation in α-MSH-stimulated B16V cells; details: for IC50: Mus musculus, B16V cells, 10 nM α-MSH, 96 h, absorption 400 nm; for Activity greater than that of kojic acid by a factor: ratio of IC50 values versus kojic acid
Procedure: Test method: B16V mouse melanoma cells are distributed in a 96-well micro titre plate in a concentration of 5×10^3 cells/well. After culturing for 24 h at 37° C. and 5% CO2 in RPMI medium, enriched with 10% foetal calf serum, various concentrations of the test substances and 10 nM α-MSH (α-melanocyte stimulating hormone) are added and the plates are incubated for a further 96 h. The maximum concentration of the test substances used corresponds to 0.1 times the value of the particular IC20 value from the cytotoxicity assay. A parallel incubation was carried out with kojic acid as standard in concentrations of 0.01 mM, 0.1 mM and 1 mM. After the incubation, SDS and NaOH (final concentrations: 1 mM and 1M, respectively) are added to the culture medium and the adsorption (A) is measured at 400 nm after 3 h. The inhibition of the pigmentation in the presence of the test compounds or kojic acid was calculated in accordance with the following equation: Inhibition of pigmentation (%)=100−[(Atest compound/Acontrol)×100] The IC50 is calculated for each test compound from the inhibition of the pigmentation (%) in a series of dilutions of test compounds. The IC50 is the concentration of a test compound at which the pigmentation is 50% inhibited.

[3] = Cytotoxicity determination (MTT), B16V cells; details: mouse, B16V melanoma cells, 48 h incubation
Procedure: as §1, §2

[4] = tested on: 3T3 fibrosarcoma cells; assay: Cytotoxicity determination (MTT), 3T3 cells; details: approximately comparable to 4-hexylresorcinol
Procedure: as §1, §2

| SMILES | IC20 at 48 h [1] [µM] | IC50 at 48 h [1] [µM] | IC50 [2] [µM] | Activity greater than that of kojic acid by a factor [2] | IC20 at 48 h [3] [µM] | IC50 at 48 h [3] [µM] | Cytotoxicity (in words) [4] | Effectiveness compared with 4-hexylresorcinol ([2]; versus 4-hexylresorcinol) |
| --- | --- | --- | --- | --- | --- | --- | --- | --- |
| CCCCCCc1ccc(O)cc1O [4-hexylresorcinol] | 70 | 140 | 5.2 | approximately 87 |  |  |  |  |
| O=c1cc(CO)occ1O [Kojic acid, 5-hydroxy-2-hydroxymethyl-4-pyranone] | > 100000 | > 100000 |  |  | > 100000 | > 100000 |  |  |
| CC(c1ccccc1)c1ccc(O)cc1O (stereo not shown) [Styrylresorcinol (4), 4-(1-phenylethyl)-1,3-dihydroxybenzene] | 70 | 150 | 2.1 | approximately 215 | 20 | 140 | relatively low cytotoxicity | more than twice as effective |
